The record followed here is PubChem BioAssay (NCI).

Molecules are shown by their SMILES. Several values for one entry are separate records, joined by “and”; a condition that tells them apart may be missing. Identical values can stand only once.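 Where inhibition never reached the appropriate level, the endpoint shown equals the highest concentration tested. Otherwise, values were interpolated linearly from a five-concentration, 48-hour dose response in 96-well plates. GI50 is the concentration that inhibits growth by half. TGI: total growth inhibition.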 A value given as a limit tells only on which side of the number the result lay.

Test systems include NCI-H226 lung; SF-539 CNS; SK-MEL-5 melanoma; HCT-15 colon; A549 NSCLC; UACC-257 melanoma; SR leukemia; IGROV1 ovarian; MCF7 breast; TK-10 renal.
Holding throughout (assay): NCI anticancer screen, dose series, 48 h

For the molecule `Clc1ccc2c(c1)N(CCCN1CCCC13CCCCC3)c1ccccc1S2`, the TGI with NCI-H226 lung was greater than 86.5 µM; in the assay with SF-539 CNS, 33.4 µM; in the assay with SK-MEL-5 melanoma, greater than 56 µM; with HCT-15 colon, 42.5 µM; in the assay on A549 NSCLC it was 40.2 µM; with UACC-257 melanoma, 24.4 µM. The TGI was 17.5 µM in the assay on SR leukemia, 30.3 µM in the assay with IGROV1 ovarian, 32.3 µM in the assay on MCF7 breast and 29.7 µM in the assay on TK-10 renal.

For `COc1cccc2c1C(=O)c1c(O)c3c(c(O)c1C2=O)C[C@@](O)(C(C)=O)CC3OC1CC(OC2CC(N)C(O)C(C)O2)C(O)C(C)O1` (stereo partly specified), the TGI in the assay on NCI-H226 lung was greater than 100 µM; with SF-539 CNS, greater than 76.8 µM; with SK-MEL-5 melanoma, greater than 100 µM; with HCT-15 colon, greater than 100 µM; in the assay on A549 NSCLC, greater than 100 µM; in the assay with UACC-257 melanoma, greater than 100 µM. In addition, the TGI with SR leukemia was greater than 70 µM; in the assay with IGROV1 ovarian, greater than 100 µM; in the assay with MCF7 breast, greater than 59.6 µM; in the assay on TK-10 renal it was greater than 100 µM.

`O=[N+]([O-])c1ccc(-n2nc3ccc4nonc4c3n2)cc1`: the TGI is 65.3 µM in the assay on NCI-H226 lung; greater than 100 µM with SF-539 CNS; greater than 100 µM with SK-MEL-5 melanoma; greater than 100 µM in the assay on HCT-15 colon; greater than 100 µM in the assay on A549 NSCLC; greater than 100 µM with UACC-257 melanoma. In addition, the TGI in the assay on SR leukemia was greater than 100 µM; in the assay with IGROV1 ovarian, greater than 100 µM; with MCF7 breast, greater than 100 µM; in the assay with TK-10 renal, 39.9 µM.

For the molecule `Cc1ccccc1NC(=O)O/N=C(\Cl)C(C)C`, the TGI was found to be 30.7 µM in the assay with NCI-H226 lung; 22.6 µM in the assay on SF-539 CNS; 25.9 µM with SK-MEL-5 melanoma; 4.17 µM in the assay with HCT-15 colon; 36.8 µM in the assay with A549 NSCLC; 28.7 µM in the assay on UACC-257 melanoma. Further, the TGI is greater than 100 µM in the assay on SR leukemia, 27.6 µM in the assay on IGROV1 ovarian, 22.1 µM in the assay with MCF7 breast and 8.19 µM with TK-10 renal.

Regarding `O=C1c2cc3c(cc2-c2c1c1cc(F)c(F)cc1c(=O)n2CCCn1ccnc1)OCO3`, the GI50 was 0.0248 µM in the assay with NCI-H226 lung; less than 0.01 µM in the assay with SF-539 CNS; 0.02 µM in the assay with SK-MEL-5 melanoma; 0.117 µM with HCT-15 colon; 0.018 µM in the assay with A549 NSCLC; 0.0969 µM in the assay with UACC-257 melanoma. Further, the GI50 with SR leukemia was less than 0.01 µM; with IGROV1 ovarian, 0.14 µM; in the assay on MCF7 breast, less than 0.01 µM; in the assay with TK-10 renal, 0.25 µM. The TGI is 0.115 µM in the assay with NCI-H226 lung; 0.0457 µM with SF-539 CNS; 0.0852 µM with SK-MEL-5 melanoma; greater than 100 µM in the assay on HCT-15 colon; 1.32 µM with A549 NSCLC; 0.65 µM in the assay with UACC-257 melanoma. Further, the TGI with SR leukemia was 16.6 µM; with IGROV1 ovarian it was greater than 100 µM; with MCF7 breast, 1.39 µM; in the assay with TK-10 renal, greater than 100 µM.

Take `CC(C)(C)C1CCC2c3c([nH]c4ccccc34)C3C(=O)N(c4ccc([N+](=O)[O-])cc4)C(=O)C3C2C1` (stereo unspecified): the TGI is 29 µM with NCI-H226 lung; 42.7 µM in the assay on SF-539 CNS; 25.6 µM with SK-MEL-5 melanoma; greater than 100 µM with HCT-15 colon; 62.1 µM with A549 NSCLC; greater than 100 µM in the assay with UACC-257 melanoma. Moreover, the TGI with SR leukemia was 19.7 µM; with IGROV1 ovarian it was greater than 100 µM; in the assay on MCF7 breast, 17.9 µM; in the assay on TK-10 renal, 78.2 µM.

Consider `COC1(CC[C@@H](C)COC2OC(CO)C(O)C(O)C2O)OC2C[C@H]3[C@@H]4CC[C@H]5C[C@@H](OC6OC(CO)C(OC7OC(CO)C(O)C(O)C7O)C(O)C6OC6OC(C)C(O)C(O)C6O)[C@H](O)C[C@]5(C)[C@H]4CC[C@]3(C)C2[C@@H]1C` (stereo partly specified), for which the TGI in the assay with NCI-H226 lung was 4.52 µM; in the assay with SF-539 CNS it was 3.34 µM; in the assay on SK-MEL-5 melanoma, 3.36 µM; in the assay on HCT-15 colon, greater than 22.8 µM; with A549 NSCLC it was 3.83 µM; in the assay with UACC-257 melanoma, 3.5 µM. Also, the TGI was found to be 16.8 µM in the assay with SR leukemia, 3.19 µM in the assay with IGROV1 ovarian, 7.84 µM in the assay on MCF7 breast and 3.82 µM in the assay with TK-10 renal.

Consider `COC(=N)C1(C#N)NC(c2ccsc2)C(C#N)(C#N)NC1c1ccsc1` (stereo unspecified), for which the TGI in the assay on NCI-H226 lung, in the assay with SF-539 CNS, in the assay on SK-MEL-5 melanoma, in the assay on HCT-15 colon, in the assay on A549 NSCLC and in the assay on UACC-257 melanoma was greater than 100 µM throughout. Further, the TGI with SR leukemia, in the assay with IGROV1 ovarian, with MCF7 breast and with TK-10 renal was greater than 100 µM throughout.

As for `N#CCCC(C=O)(CCC#N)CCC#N`, the TGI in the assay with NCI-H226 lung, in the assay with SF-539 CNS, in the assay on SK-MEL-5 melanoma, with HCT-15 colon, with A549 NSCLC and in the assay on UACC-257 melanoma was greater than 100 µM throughout. The TGI in the assay on SR leukemia, with IGROV1 ovarian, with MCF7 breast and in the assay on TK-10 renal was greater than 100 µM each time.

`O=CCCCCCOCc1ccccc1`: the TGI is greater than 100 µM in the assay with NCI-H226 lung; greater than 100 µM in the assay on SF-539 CNS; greater than 54.4 µM in the assay with SK-MEL-5 melanoma; greater than 100 µM in the assay with HCT-15 colon; greater than 100 µM in the assay with A549 NSCLC; greater than 100 µM in the assay on UACC-257 melanoma. The TGI in the assay on SR leukemia, in the assay with IGROV1 ovarian, in the assay on MCF7 breast and with TK-10 renal was greater than 100 µM throughout.

As for `COC(=O)C1OC(O[C@H]2CC[C@]3(C)[C@H]4CC=C5[C@@H]6CC(C)(C)CC[C@]6(C(=O)OC6OCC(O)C(O)C6OC6OC(C)C(OC7OCC(O)C(O)C7O)C(O)C6O)[C@H](O)C[C@@]5(C)[C@]4(C)CC[C@H]3C2(C)C)C(O)C(O)C1O` (stereo partly specified), the TGI with NCI-H226 lung is 13.9 µM and 24.8 µM; in the assay with SF-539 CNS, > 100 µM and 37.5 µM; in the assay on SK-MEL-5 melanoma, 19.4 µM and 25.8 µM; with HCT-15 colon it was 42.8 µM and 27.5 µM; with A549 NSCLC, 11.8 µM and 14.6 µM; in the assay on UACC-257 melanoma, 8.87 µM and 18.6 µM. Besides, the TGI with SR leukemia was > 100 µM and 13.4 µM; in the assay with IGROV1 ovarian, > 80.4 µM and 26.8 µM; in the assay on MCF7 breast it was 10.3 µM and 4.43 µM; in the assay with TK-10 renal, 21.3 µM and 21.5 µM. Also, in the assay with SF-539 CNS, the GI50 was > 100 µM and 19 µM.

In the case of `CC1=NN(C(=O)CC(=O)Nc2cccc(C)c2)C(=O)C1N=Nc1ccc(S(=O)(=O)CCOS(=O)(=O)O)cc1` (stereo unspecified), the TGI turned out to be 6.79 µM with NCI-H226 lung; 6.49 µM in the assay on SF-539 CNS; 2.88 µM in the assay on SK-MEL-5 melanoma; 4.83 µM in the assay on HCT-15 colon; 50.6 µM in the assay with A549 NSCLC; 23.1 µM with UACC-257 melanoma. Also, the TGI in the assay on SR leukemia is greater than 100 µM; with IGROV1 ovarian, 12.4 µM; in the assay with MCF7 breast it was 13.4 µM; in the assay on TK-10 renal it was 26.2 µM.

As for `CC(=O)NC1C(OCc2ccccc2)OC(CO)C(O)C1OC(C)C(=O)N[C@@H](C)C(=O)N[C@H](CCC(=O)NCCNCCNc1c2ccccc2nc2cccc([N+](=O)[O-])c12)C(N)=O` (stereo partly specified), the TGI turned out to be 0.716 µM with NCI-H226 lung; 0.991 µM with SF-539 CNS; 0.0635 µM in the assay on SK-MEL-5 melanoma; 1.63 µM in the assay with HCT-15 colon; 1.71 µM in the assay on A549 NSCLC; 0.753 µM in the assay on UACC-257 melanoma. Further, the TGI with SR leukemia was greater than 71.4 µM; in the assay with IGROV1 ovarian, 0.672 µM; in the assay on MCF7 breast, 2.17 µM; in the assay on TK-10 renal, 3.54 µM.

With `CN(CCCCCl)P(=O)(OCc1ccc([N+](=O)[O-])o1)OCC1OC(n2ccc(N)nc2=O)C(O)C1O` (stereo unspecified), the TGI in the assay on NCI-H226 lung was greater than 100 µM; with SF-539 CNS, 38.9 µM; with SK-MEL-5 melanoma it was 1.15 µM; in the assay with HCT-15 colon it was greater than 100 µM; with A549 NSCLC, 2.61 µM; in the assay on UACC-257 melanoma it was 30.2 µM. For the same molecule, the TGI with SR leukemia is 43.9 µM; in the assay on IGROV1 ovarian, 16.3 µM; in the assay with MCF7 breast, 17 µM; in the assay with TK-10 renal, greater than 100 µM.

`CCCCCC[C@H]([C@H](C)O)n1cnc2c(N)ncnc21`: the TGI in the assay on NCI-H226 lung, with SF-539 CNS, with SK-MEL-5 melanoma, in the assay with HCT-15 colon, in the assay on A549 NSCLC and in the assay with UACC-257 melanoma was greater than 100 µM each time. The TGI in the assay with SR leukemia, in the assay on IGROV1 ovarian, in the assay with MCF7 breast and in the assay with TK-10 renal was greater than 100 µM in each case.

For `Cc1c(C)c2c(c(N)c1C#N)C(=O)N(N)C2=O`, the TGI in the assay with NCI-H226 lung, with SF-539 CNS, in the assay on SK-MEL-5 melanoma, with HCT-15 colon, in the assay on A549 NSCLC and in the assay with UACC-257 melanoma was greater than 100 µM in each case. Besides, the TGI in the assay with SR leukemia, in the assay with IGROV1 ovarian, in the assay on MCF7 breast and with TK-10 renal was greater than 100 µM in each case.

As to `CN1CCN(C(=O)c2cn(Cc3cncn3Cc3ccc4c(c3)OCO4)cc2-c2cccc3ccccc23)CC1`, the TGI in the assay with NCI-H226 lung was greater than 100 µM; in the assay with SF-539 CNS, greater than 72.8 µM; in the assay on SK-MEL-5 melanoma, 37.4 µM; in the assay with HCT-15 colon it was greater than 100 µM; with A549 NSCLC, greater than 100 µM; in the assay on UACC-257 melanoma it was 42.7 µM. Also, the TGI was 10.3 µM in the assay on SR leukemia, greater than 100 µM in the assay on IGROV1 ovarian, greater than 83.6 µM in the assay on MCF7 breast and greater than 100 µM in the assay on TK-10 renal.
